Reference: patent EP4782431A1 (Suzhou Merna Therapeutics Co. Ltd, priority 2023, dated 2025)

Tests used:
Format in all cases: physicochemical
[1] = competitive suspension tests of crystal forms (XRPD)
Procedure: (§1) A 2θ scanning angle of the sample was 3°-40°, a scanning step size was 0.02°, and a scanning time per step was 0.12 s/step. An optical tube voltage and a current were 40 kV and 40 mA, respectively. During sample preparation, an appropriate amount of the sample was placed on a sample tray and flattened with a tool such as a glass slide to ensure a smooth and even surface.
Resulting suspensions were suspended at 5°C, 25°C, and 50°C for 3 days, respectively. The resulting suspensions were centrifuged, and solid portions were detected by XRPD.

[2] = stability of crystal forms (XRPD, HPLC, color)
Procedure: as §1
An Agilent 1260 infinityII binary pump was used for solubility and stability testing.
The stability of samples under these conditions was detected by XRPD and HPLC, and whether the samples had color changes was observed.
(§2) A certain amount of the crystal form C of the compound of formula (I) was weighed and placed in an open container at 25°C/92.5%RH for 1 week. A certain amount of the crystal form C of the compound of formula (I) was weighed and placed in a closed container at 60°C for 1 week. The stability of samples under these conditions was detected by XRPD and HPLC, and whether the samples had color changes was observed. Table 16 Stability test results of the crystal form C of the compound of formula (I)
as §2, with “form D” for “form C”, “Table 17” for “Table 16”
as §2, with “form E” for “form C”, “Table 18” for “Table 16”

[3] = hygroscopicity by dynamic vapor sorption (DVS); details: for 1st adsorption Percentage of weight change / 1st desorption Percentage of weight change / 2nd adsorption Percentage of weight change / 2nd desorption Percentage of weight change: 40-0-95-0-40%RH, 240 min per step
Procedure: ProUmid SPSx-1µ Advance was used for analysis of a sample. The sample to be tested was approximately in an amount of 5-50 mg. A temperature in a test chamber was controlled at 25±1°C, a relative humidity cycle was […], a step size was 10%, an equilibrium time was 240 minutes per step, and mass data was recorded every 20 seconds.
A DVS cycle was 40-0-95-0-40%RH. XRPD detection was performed on samples after the DVS testing to determine whether crystal form transformation occurred.

[4] = stability of crystal forms (XRPD, HPLC, color); details: 25°C/92%RH open, 1 week

NC(=O)[C@H]1CCCc2c1[nH]c1ccc(Cl)cc21 [Crystal form F, (S)-6-chloro-2,3,4,9-tetrahydro-1H-carbazole-carboxamide]
crystal form after competitive suspension slurrying ([1]; isopropanol, isopropyl acetate, and acetonitrile, 5°C, 25°C, 50°C, 3 days): converted into the crystal form F | relative stability of crystal forms ([1]; temperature range of 5°C to 50°C): more stable than the crystal forms B and G | Color ([2]; 60°C, closed, 1 week): No change | Degradation (%) ([2]; 60°C, closed, 1 week): None | Purity (%) ([2]; 60°C, closed, 1 week): 99.8% | Purity (%) ([2]; Initial): 99.8% | Hygroscopicity Conclusion ([3]; DVS at 25°C, Table 13): No hygroscopicity | 1st adsorption Percentage of weight change ([3]; Relative humidity 0% at 25°C): 0.1% | 1st desorption Percentage of weight change ([3]; Relative humidity 0% at 25°C): 0.1% | 2nd adsorption Percentage of weight change ([3]; Relative humidity 0% at 25°C): 0.3% | 2nd desorption Percentage of weight change ([3]; Relative humidity 0% at 25°C): 0.3% | 1st adsorption Percentage of weight change ([3]; Relative humidity 10% at 25°C): 0.2% | 1st desorption Percentage of weight change ([3]; Relative humidity 10% at 25°C): 0.3% | 2nd adsorption Percentage of weight change ([3]; Relative humidity 10% at 25°C): 0.2% | 2nd desorption Percentage of weight change ([3]; Relative humidity 10% at 25°C): 0.3% | 1st adsorption Percentage of weight change ([3]; Relative humidity 20% at 25°C): 0.2% | 1st desorption Percentage of weight change ([3]; Relative humidity 20% at 25°C): 0.1% | 2nd adsorption Percentage of weight change ([3]; Relative humidity 20% at 25°C): 0.2% | 2nd desorption Percentage of weight change ([3]; Relative humidity 20% at 25°C): 0.4% | 1st adsorption Percentage of weight change ([3]; Relative humidity 30% at 25°C): 0.1% | 1st desorption Percentage of weight change ([3]; Relative humidity 30% at 25°C): 0.1% | 2nd adsorption Percentage of weight change ([3]; Relative humidity 30% at 25°C): 0.0% | 2nd desorption Percentage of weight change ([3]; Relative humidity 30% at 25°C): 0.1% | 1st adsorption Percentage of weight change ([3]; Relative humidity 40% at 25°C): 0.2% | 1st desorption Percentage of weight change ([3]; Relative humidity 40% at 25°C): 0.2% | 2nd adsorption Percentage of weight change ([3]; Relative humidity 40% at 25°C): 0.0% | 2nd desorption Percentage of weight change ([3]; Relative humidity 40% at 25°C): 0.4% | 1st adsorption Percentage of weight change ([3]; Relative humidity 50% at 25°C): 0.2% | 2nd desorption Percentage of weight change ([3]; Relative humidity 50% at 25°C): 0.2% | 1st adsorption Percentage of weight change ([3]; Relative humidity 60% at 25°C): 0.2% | 2nd desorption Percentage of weight change ([3]; Relative humidity 60% at 25°C): 0.2% | 1st adsorption Percentage of weight change ([3]; Relative humidity 70% at 25°C): 0.2% | 2nd desorption Percentage of weight change ([3]; Relative humidity 70% at 25°C): 0.2% | 1st adsorption Percentage of weight change ([3]; Relative humidity 80% at 25°C): 0.1% | 2nd desorption Percentage of weight change ([3]; Relative humidity 80% at 25°C): 0.0% | 1st adsorption Percentage of weight change ([3]; Relative humidity 90% at 25°C): 0.3% | 2nd desorption Percentage of weight change ([3]; Relative humidity 90% at 25°C): 0.1% | 1st adsorption Percentage of weight change ([3]; Relative humidity 95% at 25°C): 0.1% | 2nd desorption Percentage of weight change ([3]; Relative humidity 95% at 25°C): 0.1% | XRPD after DVS testing ([3]; after DVS cycle 40-0-95-0-40%RH at 25°C): Crystal form F | Color [4]: No change | Degradation (%) [4]: None | Purity (%) [4]: 99.8%
